# In patent US20250339399A1, “SUPRAMOLECULAR SELF-ASSEMBLY SYSTEM” (Beijing Creatron Institute of Pharmaceutical Research Co., …, priority 2022, published 2025):
# Read-outs that look alike come from different tables or passages of the source.
# Tests used:
# [1] = Binary supramolecular self-assembly systems of polymer and target: guest concentration over incubation time (Comparative Example 2); assay type: physicochemical
# Method: Experiments were conducted according to the steps in Comparative Example 1, and quantitative analysis was carried out using the analytical method for each target to investigate the regulation ability […] stacking.
# [2] = cited from earlier work
# [3] = Cannabidiol derivatives, Table 30 (chemical structures)
structure (smiles),measurement,setting,value
"COC(=O)[C@H](c1ccccc1Cl)N1CCc2sccc2C1 [Clopidogrel, clopidogrel]",Concentration of the target in the solution measured after different incubation time,"[1]; binary system with 0.5% polymer 101, incubation 0.5 h",415.1 µg/mL
same,Concentration of the target in the solution measured after different incubation time,"[1]; binary system with 0.5% polymer 101, incubation 3 h",421.5 µg/mL
same,Concentration of the target in the solution measured after different incubation time,"[1]; binary system with 0.5% polymer 101, incubation 6 h",361.7 µg/mL
same,Concentration of the target in the solution measured after different incubation time,"[1]; binary system with 0.5% polymer 102, incubation 0.5 h",29.1 µg/mL
same,Concentration of the target in the solution measured after different incubation time,"[1]; binary system with 0.5% polymer 102, incubation 3 h",28.5 µg/mL
same,Concentration of the target in the solution measured after different incubation time,"[1]; binary system with 0.5% polymer 102, incubation 6 h",26.1 µg/mL
same,Concentration of the target in the solution measured after different incubation time,"[1]; binary system with 0.5% polymer 103, incubation 0.5 h",69.1 µg/mL
same,Concentration of the target in the solution measured after different incubation time,"[1]; binary system with 0.5% polymer 103, incubation 3 h",69.6 µg/mL
same,Concentration of the target in the solution measured after different incubation time,"[1]; binary system with 0.5% polymer 103, incubation 6 h",64.5 µg/mL
same,Concentration of the target in the solution measured after different incubation time,"[1]; binary system with 0.5% polymer 106, incubation 0.5 h",37.0 µg/mL
same,Concentration of the target in the solution measured after different incubation time,"[1]; binary system with 0.5% polymer 106, incubation 3 h",39.3 µg/mL
same,Concentration of the target in the solution measured after different incubation time,"[1]; binary system with 0.5% polymer 106, incubation 6 h",39.5 µg/mL
same,Concentration of the target in the solution measured after different incubation time,"[1]; binary system with 0.5% polymer 107, incubation 0.5 h",57.0 µg/mL
same,Concentration of the target in the solution measured after different incubation time,"[1]; binary system with 0.5% polymer 107, incubation 3 h",37.8 µg/mL
same,Concentration of the target in the solution measured after different incubation time,"[1]; binary system with 0.5% polymer 107, incubation 6 h",36.5 µg/mL
same,Concentration of the target in the solution measured after different incubation time,"[1]; binary system with 0.5% polymer 110, incubation 0.5 h",64.7 µg/mL
same,Concentration of the target in the solution measured after different incubation time,"[1]; binary system with 0.5% polymer 110, incubation 3 h",69.3 µg/mL
same,Concentration of the target in the solution measured after different incubation time,"[1]; binary system with 0.5% polymer 110, incubation 6 h",64.4 µg/mL
same,LogD7.4 or Log P,[2],4.11
"C=C(C)[C@@H]1CCC(C)=C[C@H]1c1ccc(CCCCC)cc1O [compound 48, ((1′R,2′R)-5′-methyl-4-pentyl-2′-(prop-1-en-2-yl)-1′,2′,3′,4′-tetrahydro-[1,1′-biphenyl]-2-ol)]",Log P,[2]; [3],"Log P = 6.63 H-D:1, H-R = 1"
"C=C(C)[C@@H]1CCC(C)=C[C@H]1c1c(O)cc(CCC)cc1O [compound 3, ((1′R,2′R)-5′-methyl-2′-(prop-1-en-2-yl)-4-propyl-1′,2′,3′,4′-tetrahydro-[1,1′-biphenyl]-2,6-diol)]",Log P,[2]; [3],"Log P = 5.44 H-D:2,H-R = 2"
"CCCCC(C)(C)[C@H](O)/C=C/[C@H]1[C@H](O)CC(=O)[C@@H]1CCCC/C=C/C(=O)OC [Gemeprost, gemeprost]",Log P,"[2]; prost derivatives, Table 31 (relevant information)",Log P:4.71 D-H: 2 R-H:4
"C=C(C)[C@@H]1CCC(CO)=C[C@H]1c1c(O)cc(CCCCC)cc1O [compound 11, ((1′R,2′R)-5′-(hydroxymethyl)-4-pentyl-2′-(prop-1-en-2-yl)-1′,2′,3′,4′-tetrahydro-[1,1′-biphenyl]-2,6-diol)]",Log P,[2]; [3],"Log P = 5.04 H-D:3,H-R = 3"
"CCCCCc1cc(O)c([C@@H]2CC(C)CC[C@H]2C(C)C)c(O)c1 (stereo partly drawn) [compound 21, (2-((1R,2S)-2-isopropyl-5-methylcyclohexyl)-5-pentylbenzene-1,3-diol)]",Log P,[2]; [3],"Log P = 7.08 H-D:2,H-R = 2"
